According to US10941136B2, “Quinazoline derivative or its salt and pharmaceutical composition comprising the same” (YUHAN CORPORATION, priority 2016, dated 2021):
pIC50: −log10 of the molar value.

Columns and labels:
Format in all cases: biochemical
PI3Kδ (p110δ/p85α)(h) = biological target: T1, PI3Kδ (p110δ/p85α)(h) (Homo sapiens, UniProt O00329); test: PI3K-HTRF in vitro enzyme assay, PI3Kδ; settings: enzyme 0.1 μg/ml
T1 construct: purchased Upstate (Millipore Co, Billerica, Mass., USA) #14˜604
Experimental: (§1) The compounds of the present invention were tested for the activity of phosphatidylinositol 3-kinase delta (PI3K) by using a PI3K enzyme-homogeneous time resolved fluorescence (PI3K-HTRF) kit, which is available under Upstate™ kit (Millipore Co, Billerica, Mass., USA). This kit system measures indirectly the amount of PIP3 produced via PI3K by detecting competitive inhibition of fluorescence complex formation.
(§2) There were used three kinds of buffer solutions, i.e., reaction buffer, stop solution, and detection solution. The reaction buffer was prepared by diluting Reaction Buffer (provided in Update™ kit) with distilled water 4 times and adding DTT to a concentration of 5 mM. The stop solution was prepared by combining STOP A and B Solutions (provided in Update™ kit) in a ratio of 3:1. The detection solution was prepared by combining Detection Solution A, B and C (provided in Update™ kit) in a ratio of 1:1:18. A substrate solution and an ATP solution were prepared by diluting the 1 mM PIP2 (phosphatidyl inositol 4,5 bi-phosphate) stock solution (provided in Update™ kit) and 10 mM ATP (Sigma-aldrich Co., St. Louis, Mo., USA) stock solution with the reaction buffer to concentrations of 20 μM and 40 μM, respectively. An enzyme solution was prepared by diluting PI3Kδ (#14˜604; Upstate™ kit) with the substrate solution to the concentration of 0.2 μg/ml (final reaction concentration: 0.1 μg/ml).
(§3) The test groups were prepared by dissolving each compound in 100% DMSO at 40× the final concentration and then diluting 10-fold with the reaction buffer. 5 μl of each diluted test group solution was transferred to a 384 well low flange white flat bottom microplate (#3572, Corning Life Sciences, Lowell, Mass., USA). We performed centrifuge (1 minute, 1000 rpm) and shaking for 2 minutes after every solution-adding step in this experiment. Next, 10 μl of the enzyme solution was added to each well. A mixed solution of the substrate solution (10 μl) plus 5 μl of the 100% DMSO diluted solution without test compound (i.e., 10% DMSO solution) was used as a negative control. And also, a mixed solution of enzyme solution (10 μl) plus 5 μl of the 100% DMSO diluted solution without test compound (i.e., 10% DMSO solution) was used as a positive control. This plate was pre-incubated for 10 minutes in a 25° C. incubator. After the pre-incubation, the phosphorylation reaction was induced by adding 5 μl of the ATP solution and the plate was incubated for 30 minutes in a 25° C. incubator. This enzyme reaction was stopped by 5 μl of the stop solution and then 5 μl of the detection solution was added thereto. To obtain enough fluorescence responses, the plate was incubated for 2 hours in a 25° C. incubator protected from light.
(§4) The time-resolved fluorescence resonance energy transfer (TR-FRET) rate was measured (emission wavelength: 665 nm, 620 nm, excitation wavelength: 313 nm) by using a Flexstation3 Micro plate reader (Molecular Devices, USA). TR-FRET Rate was calculated based on the Equation 1 and using these TR-FRET Rates, % inhibition rate of each compound was calculated based on the Equation 2. The IC50 values, i.e., the concentration of a test compound that inhibits 50% of PI3Kδ activity in vitro, are generated by Softmax program (Molecular Devices, USA). TR-FRET Rate=(Signal at 665 nm emission wavelength/Signal at 620 nm emission wavelength)×10000 <Equation 1> % Inhibition Rate=[(TR-FRET Rate of the test group−TR-FRET Rate of the positive control group)/(TR-FRET Rate of the negative control group−TR-FRET Rate of the positive control group)]×100 <Equation 2>

PI3Kα (p110α/p85α)(h) = biological target: T2, PI3Kα (p110α/p85α)(h) (Homo sapiens, UniProt P42336); test: PI3K-HTRF in vitro enzyme assay, PI3Kα; settings: enzyme 0.1 μg/ml
T2 construct: purchased Upstate (Millipore Co) #14-602
Experimental: as §1, §2, §3, §4
(§5) The compounds of the present invention were assayed for the activities of PI3K subtypes, i.e., PI3Kα, PI3Kβ and PI3Kγ, using the same procedures as in Experimental Example 1. […]

PI3Kγ (p120γ)(h) = biological target: T3, PI3Kγ (p120γ)(h) (Homo sapiens, UniProt P48736); test: PI3K-HTRF in vitro enzyme assay, PI3Kγ; settings: enzyme 0.4 μg/ml
T3 construct: purchased Upstate (Millipore Co) #14-558
Experimental: as §1, §2, §3, §4, §5

T2 sequence (P42336 whole entry): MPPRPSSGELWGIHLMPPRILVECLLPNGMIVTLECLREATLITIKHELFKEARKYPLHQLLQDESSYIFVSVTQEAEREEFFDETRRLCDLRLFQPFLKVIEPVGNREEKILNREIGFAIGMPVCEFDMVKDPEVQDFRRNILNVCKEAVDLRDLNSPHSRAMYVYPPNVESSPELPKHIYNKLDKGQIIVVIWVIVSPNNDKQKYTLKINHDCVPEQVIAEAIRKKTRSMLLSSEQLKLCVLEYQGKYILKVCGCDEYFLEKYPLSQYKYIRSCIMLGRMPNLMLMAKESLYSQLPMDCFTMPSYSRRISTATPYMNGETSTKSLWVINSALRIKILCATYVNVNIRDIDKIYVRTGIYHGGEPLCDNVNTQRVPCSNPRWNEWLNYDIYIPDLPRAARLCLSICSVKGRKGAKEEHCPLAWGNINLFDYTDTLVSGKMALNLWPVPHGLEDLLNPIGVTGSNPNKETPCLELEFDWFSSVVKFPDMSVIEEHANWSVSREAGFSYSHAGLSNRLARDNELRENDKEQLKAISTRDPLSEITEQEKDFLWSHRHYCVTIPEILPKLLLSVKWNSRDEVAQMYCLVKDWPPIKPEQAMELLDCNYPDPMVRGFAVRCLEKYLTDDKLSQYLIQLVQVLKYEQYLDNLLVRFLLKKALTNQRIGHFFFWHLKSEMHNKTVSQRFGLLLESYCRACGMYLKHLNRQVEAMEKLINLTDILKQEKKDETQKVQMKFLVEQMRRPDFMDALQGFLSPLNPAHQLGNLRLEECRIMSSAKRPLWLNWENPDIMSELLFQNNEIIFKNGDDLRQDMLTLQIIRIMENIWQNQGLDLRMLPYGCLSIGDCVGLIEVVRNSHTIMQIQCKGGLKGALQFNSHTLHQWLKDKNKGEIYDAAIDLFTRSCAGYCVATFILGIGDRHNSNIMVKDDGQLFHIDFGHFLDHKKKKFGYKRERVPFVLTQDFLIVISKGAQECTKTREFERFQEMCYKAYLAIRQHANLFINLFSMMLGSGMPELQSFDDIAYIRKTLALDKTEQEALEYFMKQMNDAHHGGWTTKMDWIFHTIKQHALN
T2 sequence (P27986 whole entry partner): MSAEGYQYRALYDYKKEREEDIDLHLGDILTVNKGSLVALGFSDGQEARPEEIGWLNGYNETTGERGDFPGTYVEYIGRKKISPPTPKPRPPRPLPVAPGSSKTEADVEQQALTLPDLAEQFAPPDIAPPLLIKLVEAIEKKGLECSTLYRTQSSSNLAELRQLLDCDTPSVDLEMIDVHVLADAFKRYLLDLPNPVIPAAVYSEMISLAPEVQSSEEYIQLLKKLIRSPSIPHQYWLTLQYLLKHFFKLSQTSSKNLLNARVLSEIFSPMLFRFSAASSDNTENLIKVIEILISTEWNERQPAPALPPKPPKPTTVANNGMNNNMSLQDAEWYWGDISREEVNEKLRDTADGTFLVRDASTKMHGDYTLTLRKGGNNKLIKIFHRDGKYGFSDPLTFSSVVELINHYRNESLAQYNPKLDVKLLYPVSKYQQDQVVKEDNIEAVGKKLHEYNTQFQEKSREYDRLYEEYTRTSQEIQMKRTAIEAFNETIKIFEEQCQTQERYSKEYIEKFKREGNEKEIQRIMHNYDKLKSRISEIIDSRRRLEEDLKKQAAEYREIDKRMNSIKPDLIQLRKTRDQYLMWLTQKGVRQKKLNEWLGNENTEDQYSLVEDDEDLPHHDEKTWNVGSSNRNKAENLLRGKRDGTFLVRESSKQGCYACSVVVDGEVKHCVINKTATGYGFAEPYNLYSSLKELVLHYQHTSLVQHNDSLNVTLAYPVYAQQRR
T3 sequence (P48736 whole entry): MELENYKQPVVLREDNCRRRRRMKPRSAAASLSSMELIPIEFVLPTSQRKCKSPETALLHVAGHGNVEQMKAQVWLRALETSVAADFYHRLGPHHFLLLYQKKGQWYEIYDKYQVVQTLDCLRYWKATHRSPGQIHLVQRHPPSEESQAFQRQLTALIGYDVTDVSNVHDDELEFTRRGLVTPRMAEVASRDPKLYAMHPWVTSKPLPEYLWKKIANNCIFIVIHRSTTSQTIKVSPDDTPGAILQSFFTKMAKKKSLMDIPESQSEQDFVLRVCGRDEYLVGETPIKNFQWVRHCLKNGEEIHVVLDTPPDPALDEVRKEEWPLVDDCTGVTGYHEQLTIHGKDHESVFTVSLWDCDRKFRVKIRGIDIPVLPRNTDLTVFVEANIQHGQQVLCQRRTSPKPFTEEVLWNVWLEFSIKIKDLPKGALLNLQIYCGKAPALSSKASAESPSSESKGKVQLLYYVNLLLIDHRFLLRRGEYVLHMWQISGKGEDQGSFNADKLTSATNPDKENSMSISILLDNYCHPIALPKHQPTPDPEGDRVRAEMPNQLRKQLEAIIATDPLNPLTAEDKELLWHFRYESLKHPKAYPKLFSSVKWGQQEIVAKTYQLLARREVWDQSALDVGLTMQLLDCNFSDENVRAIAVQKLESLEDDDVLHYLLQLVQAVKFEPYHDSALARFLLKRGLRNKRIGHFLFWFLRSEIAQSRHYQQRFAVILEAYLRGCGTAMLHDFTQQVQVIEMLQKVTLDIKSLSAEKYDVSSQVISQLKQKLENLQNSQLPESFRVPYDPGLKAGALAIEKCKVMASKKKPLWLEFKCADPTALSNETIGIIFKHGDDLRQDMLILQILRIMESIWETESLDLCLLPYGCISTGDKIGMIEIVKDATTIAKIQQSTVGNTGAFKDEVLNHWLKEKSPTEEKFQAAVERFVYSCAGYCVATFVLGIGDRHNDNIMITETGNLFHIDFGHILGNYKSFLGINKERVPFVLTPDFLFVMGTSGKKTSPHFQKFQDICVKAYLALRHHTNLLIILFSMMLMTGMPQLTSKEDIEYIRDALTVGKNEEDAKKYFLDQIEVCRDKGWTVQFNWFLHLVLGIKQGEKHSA
T1 sequence (O00329 whole entry): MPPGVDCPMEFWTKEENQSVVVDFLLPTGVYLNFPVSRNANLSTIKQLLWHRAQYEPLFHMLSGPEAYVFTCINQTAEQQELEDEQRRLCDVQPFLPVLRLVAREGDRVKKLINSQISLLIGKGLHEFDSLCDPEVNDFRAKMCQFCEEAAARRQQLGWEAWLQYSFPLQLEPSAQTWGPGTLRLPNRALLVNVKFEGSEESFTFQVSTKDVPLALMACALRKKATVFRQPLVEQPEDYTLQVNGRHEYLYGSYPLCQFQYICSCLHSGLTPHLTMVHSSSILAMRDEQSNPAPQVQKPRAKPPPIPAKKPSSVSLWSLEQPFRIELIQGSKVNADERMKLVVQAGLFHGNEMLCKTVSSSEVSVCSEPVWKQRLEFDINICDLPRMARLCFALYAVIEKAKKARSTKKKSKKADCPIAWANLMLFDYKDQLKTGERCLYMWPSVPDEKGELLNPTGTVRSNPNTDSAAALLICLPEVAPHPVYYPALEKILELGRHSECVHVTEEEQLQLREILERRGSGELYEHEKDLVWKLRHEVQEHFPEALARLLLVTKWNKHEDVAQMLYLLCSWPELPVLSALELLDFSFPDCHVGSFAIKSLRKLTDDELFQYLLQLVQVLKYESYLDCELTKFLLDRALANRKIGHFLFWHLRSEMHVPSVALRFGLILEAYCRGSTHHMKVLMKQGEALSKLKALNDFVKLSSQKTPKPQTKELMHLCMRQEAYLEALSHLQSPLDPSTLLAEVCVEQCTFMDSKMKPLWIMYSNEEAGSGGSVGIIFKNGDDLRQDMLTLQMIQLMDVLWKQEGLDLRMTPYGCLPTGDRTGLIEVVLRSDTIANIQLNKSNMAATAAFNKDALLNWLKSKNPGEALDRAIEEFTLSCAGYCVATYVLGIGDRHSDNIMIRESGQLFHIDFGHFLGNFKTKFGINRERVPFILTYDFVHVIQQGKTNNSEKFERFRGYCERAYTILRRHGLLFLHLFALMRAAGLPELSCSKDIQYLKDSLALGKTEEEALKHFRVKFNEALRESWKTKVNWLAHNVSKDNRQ
T1 sequence (P27986 whole entry partner): as the sequence (P27986 whole entry partner) above

| SMILES | pIC50 (PI3Kδ (p110δ/p85α)(h)) | pIC50 (PI3Kα (p110α/p85α)(h)) | pIC50 (PI3Kγ (p120γ)(h)) |
| --- | --- | --- | --- |
| C[C@H](Nc1ncnc2ccc(C#N)cc12)c1nc2cccc(-c3cncnc3)c2c(=O)n1-c1ccccc1 [Example 1, (S)-4-((1-(4-oxo-3-phenyl-5-(pyrimidin-5-yl)-3,4-dihydroquinazolin-2-yl)ethyl)amino)quinazoline-6-carbonitrile] | 7.70 | 5.45 | 6.04 |
| Cc1ncc(-c2cccc3nc([C@H](C)Nc4ncnc5ccc(C#N)cc45)n(-c4ccccc4)c(=O)c23)cn1 [Example 3, (S)-4-((1-(5-(2-methylpyrimidin-5-yl)-4-oxo-3-phenyl-3,4-dihydroquinazolin-2-yl)ethyl)amino)quinazoline-6-carbonitrile] | 7.66 | 5.75 | 6.58 |
| CC[C@H](Nc1ncnc2ccc(C#N)cc12)c1nc2cccc(-c3cncnc3)c2c(=O)n1-c1ccccc1 [Example 4, (S)-4-((1-(4-oxo-3-phenyl-5-(pyrimidin-5-yl)-3,4-dihydroquinazolin-2-yl)propyl)amino)quinazoline-6-carbonitrile] | 7.85 | 5.66 | 5.44 |
| C[C@H](Nc1ncnc2cccc(F)c12)c1nc2cccc(-c3cncnc3)c2c(=O)n1-c1ccccc1 [Example 22, (S)-2-(1-((5-fluoroquinazolin-4-yl)amino)ethyl)-3-phenyl-5-(pyrimidin-5-yl)quinazolin-4(3H)-one] | 7.52 | – | 5.23 |
| CC(C)[C@H](Nc1ncnc2cccc(F)c12)c1nc2cccc(-c3cncnc3)c2c(=O)n1-c1ccccc1 [Example 28, (S)-2-(1-((5-fluoroquinazolin-4-yl)amino)-2-methylpropyl)-3-phenyl-5-(pyrimidin-5-yl)quinazolin-4(3H)-one] | 7.72 | – | – |
| CC(C)[C@H](Nc1ncnc2cccc(F)c12)c1cc2cccc(-c3cncnc3)c2c(=O)n1-c1ccccc1 [Example 45, (S)-3-(1-((5-fluoroquinazolin-4-yl)amino)-2-methylpropyl)-2-phenyl-8-(pyrimidin-5-yl)isoquinolin-1(2H)-one] | 7.77 | – | < 6.00 |
| Cc1ncc(-c2cccc3cc([C@@H](Nc4ncnc5cccc(F)c45)C(C)C)n(-c4ccccc4)c(=O)c23)cn1 [Example 47, (S)-3-(1-((5-fluoroquinazolin-4-yl)amino)-2-methylpropyl)-8-(2-methylpyrimidin-5-yl)-2-phenylisoquinolin-1(2H)-one] | 7.64 | – | < 6.00 |

More lines, now with the values ahead:

| pIC50 (PI3Kδ (p110δ/p85α)(h)) | pIC50 (PI3Kα (p110α/p85α)(h)) | pIC50 (PI3Kγ (p120γ)(h)) | SMILES |
| --- | --- | --- | --- |
| 7.85 | 6.00 | 5.67 | CC[C@H](Nc1ncnc2ccc(C#N)cc12)c1nc2cccc(-c3cnc(OC)nc3)c2c(=O)n1-c1ccccc1 [Example 5, (S)-4-((1-(5-(2-methoxypyrimidin-5-yl)-4-oxo-3-phenyl-3,4-dihydroquinazolin-2-yl)propyl)amino)quinazoline-6-carbonitrile] |
| 7.82 | 5.82 | 5.71 | CCOc1ncc(-c2cccc3nc([C@H](CC)Nc4ncnc5ccc(C#N)cc45)n(-c4ccccc4)c(=O)c23)cn1 [Example 6, (S)-4-((1-(5-(2-ethoxypyrimidin-5-yl)-4-oxo-3-phenyl-3,4-dihydroquinazolin-2-yl)propyl)amino)quinazoline-6-carbonitrile] |
| 7.70 | 6.20 | 6.13 | CC[C@H](Nc1ncnc2ccc(C#N)cc12)c1nc2cccc(-c3cnc(N(C)C)nc3)c2c(=O)n1-c1ccccc1 [Example 7, (S)-4-((1-(5-(2-(dimethylamino)pyrimidin-5-yl)-4-oxo-3-phenyl-3,4-dihydroquinazolin-2-yl)propyl)amino)quinazoline-6-carbonitrile] |
| 7.74 | 6.10 | 5.76 | CC[C@H](Nc1ncnc2ccc(C#N)cc12)c1nc2cccc(-c3cnc(SC)nc3)c2c(=O)n1-c1ccccc1 [Example 8, (S)-4-((1-(5-(2-(methylsulfanyl)pyrimidin-5-yl)-4-oxo-3-phenyl-3,4-dihydroquinazolin-2-yl)propyl)amino)quinazoline-6-carbonitrile] |
